According to ChEMBL document CHEMBL4184137, “Lysine Deacetylase Inhibitors in Parasites: Past, Present, and Future Perspectives” (J Med Chem, 2017):

Tests used:
Leishmania infantum [1] = test: Antileishmanial activity against amastigote stage of Leishmania infantum infected in PMA-differentiated human THP-1 cells after 3 days by luciferase assay; format: functional, organism-based; settings: THP-1, 72 h
[2] = molecular target: T1, Putative silent information regulator 2 (Leishmania infantum, UniProt A0A6L0XH39); test: Inhibition of N-terminal His6-tagged recombinant Leishmania infantum SIR2RP1 expressed in Escherichia coli in presence of NAD+ by fluorimetric method
T1 sequence (A0A6L0XH39 whole entry): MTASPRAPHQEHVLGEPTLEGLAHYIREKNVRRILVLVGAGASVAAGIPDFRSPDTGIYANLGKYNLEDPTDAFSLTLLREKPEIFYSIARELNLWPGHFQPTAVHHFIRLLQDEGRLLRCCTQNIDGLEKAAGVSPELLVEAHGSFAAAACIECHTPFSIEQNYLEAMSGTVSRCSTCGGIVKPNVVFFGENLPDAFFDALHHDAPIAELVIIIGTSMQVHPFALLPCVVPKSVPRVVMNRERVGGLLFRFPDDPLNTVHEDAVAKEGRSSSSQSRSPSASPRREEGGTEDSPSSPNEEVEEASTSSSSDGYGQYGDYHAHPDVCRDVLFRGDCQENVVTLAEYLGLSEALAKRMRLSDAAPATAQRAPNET

Plasmodium falciparum [3] = test: Antimalarial activity against Plasmodium falciparum; format: functional, organism-based
[4] = Inhibition of Plasmodium falciparum Sir2A
Leishmania infantum [5] = test: Antileishmanial activity against amastigote stage of Leishmania infantum MHOM/MA671TMAP263 expressing luciferase after 72 hrs by luciferase assay; format: functional, organism-based; settings: MHOM/MA671TMAP263, 72 h
Trypanosoma cruzi = test: Antitrypanosomal activity against epimastigotes of Trypanosoma cruzi […] by Alamar Blue assay; format: functional, organism-based
Plasmodium falciparum [6] = test: Antiplasmodial activity against Plasmodium falciparum 3D7 assessed as growth inhibition after 24 hrs by measuring incorporation of [3H]-hypoxanthine by liquid scintillation counting method; format: functional, organism-based
Plasmodium falciparum [7] = test: Antimalarial activity against Plasmodium falciparum infected in human erythrocytes preincubated for 48 hrs followed by [3H]-hypoxanthine addition measured after 24 hrs by scintillation counting assay; format: functional, organism-based
Toxoplasma gondii = test: Antiparasitic activity against tachyzoite stage of Toxoplasma gondii; format: functional, organism-based
Schistosoma mansoni [8] = test: Antiparasitic activity against Schistosoma mansoni assessed cell viability at 20 uM after 5 days; format: functional
Schistosoma mansoni [9] = test: Antiparasitic activity against Schistosoma mansoni assessed as pairing at 20 uM after 6 days relative to control; format: functional
Schistosoma mansoni [10] = test: Antiparasitic activity against Schistosoma mansoni assessed as cumulative egg reduction at 20 uM; format: functional; set-up: scale not given: the % may be the effect or the level left

| SMILES | IC50 (Leishmania infantum [1]) [µM] | IC50 [2] [µM] | also measured |
| --- | --- | --- | --- |
| O=C1c2cccc3cccc(c23)C(=O)N1CCNCCCNCCCNCCN1C(=O)c2cccc3cccc(c23)C1=O | 1 to 10 | 5.7 to 54.7 | – |
| O=C1c2cccc3cccc(c23)C(=O)N1CCNCCCCCCNCCN1C(=O)c2cccc3cccc(c23)C1=O | 1 to 10 | 5.7 to 54.7 | – |
| CCCC(CCC)C(=O)O [VALPROIC ACID] | – | – | IC50 (Plasmodium falciparum [3]): > 100 µM |
| O=C1c2cccc3cccc(c23)C(=O)N1CCNCCCCCCCCNCCN1C(=O)c2cccc3cccc(c23)C1=O | 1 to 10 | 5.7 to 54.7 | – |
| Cc1ccc(C(=O)Nc2ccc(S(=O)(=O)O)c3cc(S(=O)(=O)O)cc(S(=O)(=O)O)c23)cc1NC(=O)c1cccc(NC(=O)Nc2cccc(C(=O)Nc3cc(C(=O)Nc4ccc(S(=O)(=O)O)c5cc(S(=O)(=O)O)cc(S(=O)(=O)O)c45)ccc3C)c2)c1 [SURAMIN] | – | 7 | – |
| O=C1c2cccc3cccc(c23)C(=O)N1CCNCCCNCCCCNCCCNCCN1C(=O)c2cccc3cccc(c23)C1=O | 1 to 10 | 5.7 to 54.7 | – |
| NC(=O)c1cccnc1 [NIACINAMIDE] | – | 40 | IC50 [4]: 51 µM; IC50 (Leishmania infantum [5]): 5500 to 13900 µM; EC50 (Trypanosoma cruzi): 25800 µM; IC50 (Plasmodium falciparum [6]): 9900 µM |
| O=C(CCCCCCC(=O)NO)NO [SUBEROHYDROXAMIC ACID] | – | – | IC50 (Plasmodium falciparum [7]): 0.8 to 2.3 µM; IC50 (Toxoplasma gondii): 0.213 µM |
| O=C1NC(=S)NC(=O)C1=Cc1cc2ccccc2[nH]1 | – | – | Activity (Schistosoma mansoni [8]): 100%; Activity (Schistosoma mansoni [9]): 100%; Activity (Schistosoma mansoni [10]): 65% |
| O=C1c2cccc3cccc(c23)C(=O)N1CCNCCCCNCCCNCCN1C(=O)c2cccc3cccc(c23)C1=O | 1 to 10 | 5.7 to 54.7 | – |
| O=C1c2cccc3cccc(c23)C(=O)N1CCNCCNCCNCCN1C(=O)c2cccc3cccc(c23)C1=O | 1 to 10 | 5.7 to 54.7 | – |
| O=C(/C=C/c1ccc(C(=O)NO)cc1)NO | – | – | IC50 (Plasmodium falciparum [7]): 0.9 to 1.1 µM |
| O=C1c2cccc3cccc(c23)C(=O)N1CCNCCCCCCCCCCCCNCCN1C(=O)c2cccc3cccc(c23)C1=O | 1 to 10 | 5.7 to 54.7 | – |
| O=C1c2cccc3cccc(c23)C(=O)N1CCNCCCCCCCNCCN1C(=O)c2cccc3cccc(c23)C1=O | 1 to 10 | 5.7 to 54.7 | – |
| O=C1c2cccc3cccc(c23)C(=O)N1CCNCCCCNCCN1C(=O)c2cccc3cccc(c23)C1=O | 1 to 10 | 5.7 to 54.7 | – |
| O=C(CCCCCN1C(=O)c2cccc3cccc(c23)C1=O)NO | – | – | IC50 (Toxoplasma gondii): 0.039 µM |
| O=C1CCc2c(ccc3ccccc23)O1 [SPLITOMICIN] | – | – | IC50 [4]: > 400 µM; IC50 (Plasmodium falciparum [6]): > 10 µM |
| O=C1c2cccc3cccc(c23)C(=O)N1CCNCCCCCCCCCCNCCN1C(=O)c2cccc3cccc(c23)C1=O | 1 to 10 | 5.7 to 54.7 | – |
| Oc1ccc(/C=C/c2cc(O)cc(O)c2)cc1 [RESVERATROL] | – | – | IC50 (Plasmodium falciparum [3]): 60 µM |
| O=C1c2cccc3cccc(c23)C(=O)N1CCNCCCCCNCCN1C(=O)c2cccc3cccc(c23)C1=O | 1 to 10 | 5.7 to 54.7 | – |
| O=C1c2cccc3cccc(c23)C(=O)N1CCNCCCCCCCCCNCCN1C(=O)c2cccc3cccc(c23)C1=O | 1 to 10 | 5.7 to 54.7 | – |
